{"source": "paper PMC6811539", "about": "“Minute-scale persistence of a GPCR conformation state triggered by non-cognate G protein interactions primes signaling” (Nature Communications, 2019)", "key": {"[1]": {"assay": "extent of photocleavage of PC-Qp by MALDI-MS", "format": "physicochemical", "method": "Native membranes were prepared from cells expressing β2-mCer and were stored in sucrose-supplemented buffer A as described above (Membrane preparations). […]. Both samples were centrifuged 100,000 × g, 5 min, 4 °C to sediment the membrane. Supernatants were stored on ice for analysis by MS. Control samples containing 50 μM peptide in the buffer were also prepared.\nPrior to matrix-assisted laser desorption and ionization time-of-flight MS (MALDI-TOF MS) analysis, the samples were desalted using C18 ZipTips (Millipore Corporation, Billerica, MA). The manufacturer’s standard protocol for peptide clean-up was followed. After elution from the ZipTip, 1 μL of each sample was spotted on a MALDI-TOF 384 spot stainless-steel target (Bruker Daltonics, Billerica, MA) and mixed with 1 μl of α-cyano-4-hydroxy-cinnamic acid (α-CHCA) matrix (15 mg/ml α-CHCA in 50% acetonitrile). Each spot was allowed to dry at room temperature. The target was placed in a Bruker Autoflex Speed MALDI-TOF mass spectrometer (Bruker Daltonics, Billerica, MA) equipped with a Nd-YAG 355 nm pulsed laser. The data were collected in reflectron mode, positive polarity, with an accelerating potential of 19 kV. Each spectrum was the accumulation of 4000 laser shots with complete spot raster of the laser during data collection. External calibration was performed using 0.5 μl α-CHCA and 0.5 μl of peptide standard (part# 206195, Bruker Daltonics, Billerica, MA) with Angiotensin II (monoisotopic mass [MH^+ ] 1046.5418), Angiotensin I (monoisotopic mass [MH^+ ] 1296.6848), SubstanceP (monoisotopic mass [MH^+] 1347.7354), Bombesin (monoisotopic mass [MH^+] 1619.8223), ACTH clip 1–17 (monoisotopic mass [MH^+] 2093.0862), ACTH clip 18–39 (monoisotopic mass [MH^+] 2465.1983), and Somatostatin 28 (monoisotopic mass [MH^+] 3147.4710). The Bruker data files were converted to mzXML files using MSConvertGUI tool in ProteoWizard open-source software. The mzXML files were viewed and analyzed with mMass v5.5 open-source software."}, "V1A-R with purified Gαq": {"test_system": "V1A-R with purified Gαq", "assay": "activation of purified Gq (BODIPY-FL-GTPγS) in V1A-R membranes", "format": "biochemical, human (V1AR); Mus musculus (Gαq)", "details": "hotspot swapped peptide vs. parent; vasopressin 100 nM"}, "V1A-R SPASM sensors": {"test_system": "V1A-R SPASM sensors", "assay": "IP1 levels in HEK293T cells expressing V1A-R SPASM sensors", "format": "cell-based, human", "details": "hotspot swapped peptide vs. parent; vasopressin 100 nM", "method": "HEK293T cells expressing the indicated sensor were collected 28–32 h post transfection, to assess IP1 levels using the IP-One HTRF assay kit (Cisbio). Cells were gently resuspended in their original media, counted using a hemocytometer, and centrifuged (300 × g, 3 min). An appropriate volume of StimB buffer (CisBio: 10 mM Hepes, 1 mM CaCl2, 0.5 mM MgCl2, 4.2 mM KCl, 146 mM NaCl, 5.5 mM glucose, 50 mM LiCl, pH 7.4) was added to reach a density of 3 × 10^6 cells/mL. Cells were incubated at 37 °C for 15 min. Cells were subsequently incubated with or without 100 nM of Arg-vasopressin peptide for 5 min at 37 °C. The manufacturer’s protocol was modified to achieve a high signal-to-noise ratio. […] IP1 FRET spectra were collected in top read format using a FlexStation3 plate reader with a delay of 50 μs and an integration time of 300 μs. […] FRET was calculated from ratio of the emission at […] to the emission at 620 nm. […]\nSupplementary Figure 1 - Hot-spot substitutions in Gα peptides affect G protein activation and downstream signaling from V1A-R. (a) Activation of G protein (Gαq) is monitored by the increase in BODIPY fluorescence upon agonist stimulation of membranes harvested from HEK293T cells expressing V1A- R, and reconstituted with purified Gαq. […] Statistically significant differences were assessed by a one- way ANOVA, followed by Tukey’s post-ANOVA test. […]"}, "PKC": {"test_system": "PKC", "assay": "cAMP accumulation with PKC inhibitors in Gαq-overexpressing and untransfected HEK293T cells", "format": "cell-based, human", "details": "pretreatment with inhibitor 10 μM; fenoterol 10 μM, forskolin 2 μM", "excerpt": "(§1) For concentration–response curves with Gαq overexpression as well as the knockdown experiments, transfected and control cells (untransfected or mock short hairpin RNA transfected) were resuspended to equivalent concentration (4 × 10^6 cells/ml) based on Countess II numbers."}, "β2-AR-mCer": {"molecular_target": "T1, β2-AR-mCer (Homo sapiens, UniProt P07550)", "T1 construct": "expressed in transfected cells; host or cells: native membranes of transiently transfected HEK293T cells", "T1 sequence (P07550 whole entry)": "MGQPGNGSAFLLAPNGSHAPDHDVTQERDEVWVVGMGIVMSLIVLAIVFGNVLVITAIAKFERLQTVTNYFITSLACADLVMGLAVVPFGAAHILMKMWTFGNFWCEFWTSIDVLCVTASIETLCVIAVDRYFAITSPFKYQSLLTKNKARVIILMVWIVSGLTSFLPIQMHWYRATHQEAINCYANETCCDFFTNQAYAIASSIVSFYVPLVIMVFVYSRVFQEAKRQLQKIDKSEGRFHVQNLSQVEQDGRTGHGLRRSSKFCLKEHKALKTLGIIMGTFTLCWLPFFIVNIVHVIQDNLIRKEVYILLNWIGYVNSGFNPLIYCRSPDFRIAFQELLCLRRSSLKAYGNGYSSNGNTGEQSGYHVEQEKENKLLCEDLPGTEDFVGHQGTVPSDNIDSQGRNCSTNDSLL", "assay": "affinity pull-down and release (binding-and-release) assay for Gα peptide–β2-AR interaction", "details": "biotinylated peptide 30 μM, β2-mCer 10 nM", "method": "Native membranes were prepared from cells expressing β2-mCer and stored in sucrose-supplemented buffer A as described above (Membrane preparations). Membranes were sonicated (3× bursts, 15 s with 1 min pauses) and resuspended in ΔFRET buffer minus Ca^2+ to a concentration of 10 nM receptor based on fluorescence counts. bioQp/bioSp (30 μM) and 100 μM isoproterenol were added and mixed for 5 min. Samples were split into duplicates, one of which was not manipulated in any way to obtain total receptor counts. To the other tube, 20 μl of 0.4 mg/ml streptavidin-coated magnetic beads were added, mixed, and precipitated using a Neodymium disc magnet N52 (20 × 40 mm). Supernatant was removed to a fresh micro-centrifuge tube to monitor fluorescence of receptors not bound to the beads. A solution of 100 μM Qp/Sp was added to the precipitated beads, mixed, and magnetically separated again. The supernatant was collected to determine the released fraction of receptors. Fluorescence of mCer was monitored on a FluoroMax 4 fluorometer (Horiba) using 430 nm excitation (8 nm bandpass) and emission scan from 450 to 500 nm, with the maximum at 475 nm being used for the calculation. Based on total and unbound counts, the amount of receptor bound was calculated (bound = total − unbound) and compared with the counts from the released receptor (% = released/bound). […]"}, "endogenous β2-AR": {"molecular_target": "endogenous β2-AR (Homo sapiens, UniProt P07550)", "sequence (P07550 whole entry)": "as above", "assay": "cell-based", "details": "HEK-293T, with forskolin 2 μM, 10 min, mean ± SD", "excerpt": "as §1"}, "β2-AR SPASM sensors": {"molecular_target": "β2-AR SPASM sensors (Homo sapiens, UniProt P07550)", "sequence (P07550 whole entry, one chain of several)": "as the sequence (P07550 whole entry) above", "sequence (P50148 333-359, one chain of several, further chain)": "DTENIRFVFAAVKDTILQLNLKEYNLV", "assay": "cAMP accumulation in HEK293T cells expressing β2-AR SPASM sensors (cAMP Glo)", "format": "cell-based", "details": "saturating agonist, normalized to β2-AR-(-), mean; for Emax: HEK-293T, read-out: Maximum cAMP (Emax)"}}, "note": "Where “and” joins values, the source holds several entries; their conditions need not be identical. Identical values can stand only once. Like-named read-outs stand apart in the source and are kept apart here. Where a SMILES comes first, the peptide text is derived from it. The star is where a group is joined. Biotin = O=C1N[C@H]2[C@H](CS[C@H]2CCCCC(=O)*)N1"}
{"compound": "N-term fragment: N-terminal fragment generated by photocleavage of PC-Qp (DTENIRFVFAAVKDTILQLNLKE)", "values": [{"measurement": "N-term fragment cleaved (fraction, MALDI-MS)", "setting": "[1]; minus UV, replicate 1", "value": 0.33}, {"measurement": "N-term fragment cleaved (fraction, MALDI-MS)", "setting": "[1]; minus UV, replicate 2", "value": 0.24}, {"measurement": "N-term fragment cleaved (fraction, MALDI-MS)", "setting": "[1]; minus UV, replicate 3", "value": 0.38}, {"measurement": "N-term fragment cleaved (fraction, MALDI-MS)", "setting": "[1]; plus UV (350 nm, 2 min), replicate 1", "value": 0.91}, {"measurement": "N-term fragment cleaved (fraction, MALDI-MS)", "setting": "[1]; plus UV (350 nm, 2 min), replicate 2", "value": 0.91}, {"measurement": "N-term fragment cleaved (fraction, MALDI-MS)", "setting": "[1]; plus UV (350 nm, 2 min), replicate 3", "value": 0.92}]}
{"compound": "Qp → Sp: Qp mutant L349Q, E355Q, mimicking Sp (DTENIRFVFAAVKDTIQQLNLKQYNLV)", "values": [{"measurement": "V1A-R G-protein activation in words", "setting": "V1A-R with purified Gαq", "value": "increased cognate (Qp → Sp > Qp)"}, {"measurement": "V1A-R IP1 levels in words", "setting": "V1A-R SPASM sensors", "value": "increased cognate (Qp → Sp > Qp)"}]}
{"compound": "CN(C)CCCn1cc(C2=C(c3c[nH]c4ccccc34)C(=O)NC2=O)c2ccccc21", "note": "[BimI]", "values": [{"measurement": "effect of PKC inhibitor on enhanced cAMP response of Gαq-overexpressing cells", "setting": "PKC", "value": "did not block the enhanced cAMP response"}]}
{"compound": "CC[C@H](C)[C@H](NC(=O)[C@H](CC(N)=O)NC(=O)[C@H](CCC(=O)O)NC(=O)[C@@H](NC(=O)[C@H](CC(=O)O)NC(=O)CCCC[C@@H]1SC[C@@H]2NC(=O)N[C@@H]21)[C@@H](C)O)C(=O)N[C@@H](CCCNC(=N)N)C(=O)N[C@@H](CCCNC(=N)N)C(=O)N[C@H](C(=O)N[C@@H](Cc1ccccc1)C(=O)N[C@@H](CC(N)=O)C(=O)N[C@@H](CC(=O)O)C(=O)N[C@@H](CS)C(=O)N[C@@H](CCCNC(=N)N)C(=O)N[C@@H](CC(=O)O)C(=O)N[C@H](C(=O)N[C@H](C(=O)N[C@@H](CCC(N)=O)C(=O)N[C@@H](CCCNC(=N)N)C(=O)N[C@@H](CCSC)C(=O)N[C@@H](Cc1c[nH]cn1)C(=O)N[C@@H](CC(C)C)C(=O)N[C@@H](CCCNC(=N)N)C(=O)N[C@@H](CCC(N)=O)C(=O)N[C@@H](Cc1ccc(O)cc1)C(=O)N[C@@H](CCC(=O)O)C(=O)N[C@@H](CC(C)C)C(=O)N[C@@H](CC(C)C)C(=O)O)[C@@H](C)CC)[C@@H](C)CC)C(C)C", "note": "[bioSp] (Biotin-DTENIRRVFNDCRDIIQRMHLRQYELL-OH)", "values": [{"measurement": "mean bound (100-Supernatant)", "setting": "β2-AR-mCer; isoproterenol 100 μM, total incl. nonspecific", "value": 54.8625, "unit": "%"}, {"measurement": "receptor specifically pulled down (bound)", "setting": "β2-AR-mCer; nonspecific subtracted, mean", "value": "45% and 45.31%"}]}
{"compound": "CC(Cc1ccc(O)cc1)NCC(O)c1cc(O)cc(O)c1", "note": "(centres unmarked) [Fenoterol, fenoterol]", "values": [{"measurement": "Emax", "setting": "endogenous β2-AR; Gαq overexpressing", "value": "138 ± 3.15", "unit": "%"}, {"measurement": "Emax", "setting": "endogenous β2-AR; untransfected (Un.)", "value": "94.5 ± 3.05", "unit": "%"}, {"measurement": "Emax", "setting": "β2-AR SPASM sensors; b2-AR-(-) sensor", "value": 97.5, "unit": "%"}, {"measurement": "Emax", "setting": "β2-AR SPASM sensors; b2-AR-(Qp) sensor", "value": 171, "unit": "%"}, {"measurement": "Emax", "setting": "β2-AR SPASM sensors; b2-AR-(Sp) sensor", "value": 131, "unit": "%"}]}
{"compound": "COc1ccc2c(c1)c(C1=C(c3c[nH]c4ccccc34)C(=O)NC1=O)cn2CCCN(C)C", "note": "[Gö6983]", "values": [{"measurement": "effect of PKC inhibitor on enhanced cAMP response of Gαq-overexpressing cells", "setting": "PKC", "value": "did not block the enhanced cAMP response"}]}
{"compound": "CNC[C@H](O)c1ccc(O)c(O)c1", "note": "[Epinephrine, epinephrine]", "values": [{"measurement": "Maximum cAMP (Emax)", "setting": "β2-AR SPASM sensors; b2-AR-(-) sensor", "value": 100, "unit": "%"}, {"measurement": "Maximum cAMP (Emax)", "setting": "β2-AR SPASM sensors; b2-AR-(Qp) sensor", "value": 182.89, "unit": "%"}, {"measurement": "Maximum cAMP (Emax)", "setting": "β2-AR SPASM sensors; b2-AR-(Sp) sensor", "value": 197.09, "unit": "%"}]}
